Legend:
LX2 cells [1] = assay: LOX and LOXL2 expression in LX2 cells under hypoxia (immunoblot, qPCR); type: cell-based; details: 10 μM, hypoxia 24 hours, vs DMSO
Experimental: (§1) Section (B) Relative band intensities were calculated for both LOX and LOXL2 using ImageJ.

NLF cells = assay: LOX and LOXL2 expression in NLF cells under hypoxia (immunoblot, qPCR); type: cell-based; details: 10 μM, hypoxia 24 hours, vs DMSO
Experimental: as §1

LX2 cells [2] = assay: qRT-PCR of Col1A1, PHGDH, PSAT1, SHMT1, SHMT2 mRNA in LX2 cells after TGFβ; type: cell-based; details: following TGFβ treatment, vs DMSO, qRT-PCR fold change
Experimental: Cellular levels of mRNA of collagen (Col1A1), PHGDH, PSAT1, SHMT1, and SHMT2 in LX2 cells with DASA-10 (black bar) or DMSO (open bar) treatment following TGFβ treatment were analyzed by qRT-PCR. The cellular mRNA levels are presented as fold change by comparing controls. Error bars represent mean±S.E.M.

cerulein pancreatitis = assay: Cerulein pancreatitis induction in mice with subsequent treatment; type: in vivo; details: cerulein-induced, vs vehicle
Experimental: Section (A) is schematic illustration of the schedule of cerulein (red arrows) pancreatitis induction and subsequent TEPP-46 treatments (green arrows). […] Quantification was calculated from measurements of 6 mice. Four randomly selected tissue sections per animal and three randomly selected view fields in each section were quantified. The quantity of collagen levels in Sirius red stain is presented as % of total area.

bleomycin lung fibrosis = assay: Bleomycin lung fibrosis induction in mice with subsequent treatment; type: in vivo
Experimental: (§2) Sections (A) & (E) of FIG. 1 are schematic illustrations of the schedule of TAA/alcohol liver fibrosis (A) and bleomycin lung fibrosis (E) induction and subsequent TEPP-46 treatments. […] Sections (C) & (D) of FIG. 1 show quantitation of collagen levels in Sirius red (B) and Masson's trichrome (F) staining and a-SMA IF (B) and IHC (F) staining of fibrotic liver (B) and lung (F) using ImageJ software. Quantification was calculated from measurements of 10 mice. Four randomly selected tissue sections per animal and three randomly selected view fields in each section were quantified. The quantity of collagen levels in Sirius red or Masson's trichrome stain and α-SMA IF or IHC stain is presented as % of total area. […] Sections (G) & (H) show Quantitative analyses of Serine (G) and Glycine (H) levels in tissue extracts of liver and lung from mice treated with indicated agents by HPLC-ms. Serine and glycine levels are presented as relative abundance by defining the vehicle treated group as 100%. Error bars in Sections C, D, G, H represent mean±S.E.M

[3] = tested on: myocardial infarction (MI); assay: Myocardial infarction by left ventricle ligation, cardiac fibrosis; type: in vivo; details: C57BL/6J mice, LV ligation 70 minutes, i.p. injection, vs vehicle
Experimental: C57BL/6J mice (n=6/group) were induced myocardial infarction (MI) by left ventricle ligation (LV). Sham are the mice underwent the same surgical procedure without LV. After 70 minutes, the LV was relieved. All mice were immediately treated with TEPP-46 or vehicle by i.p. injection. No treatment for the Sham mice. […] Scale bars, […]. […] The quantification is a mean value of randomly selected 4 fields from each section. Four sections were randomly selected from each mouse. The quantification is presented as blue staining Collagen Area (%). Error bars represent mean±S.E.M. * P<0.05, ** P<0.01, *** P<0.001, by unpaired two-tailed Student's t-test.

[4] = tested on: TAA/alcohol liver fibrosis; assay: TAA/alcohol liver fibrosis induction in mice with subsequent treatment; type: in vivo
Experimental: as §2

Structure (SMILES) | LOX and LOXL2 expression (LX2 cells [1]) | LOX and LOXL2 expression (NLF cells) | metabolic enzymes involved in serine/glycine metabolism (mRNA of Col1A1, PHGDH, PSAT1, SHMT1, SHMT2) (LX2 cells [2]) | pancreatitis (collagen in Sirius red staining, H&E of pancreas) (cerulein pancreatitis) | lung fibrosis (collagen by Masson's trichrome, α-SMA IHC staining, % of total area) (bleomycin lung fibrosis; bleomycin lung fibrosis, mice, vs vehicle) | serine/glycine metabolism (serine and glycine levels in tissue extracts by HPLC-ms) (bleomycin lung fibrosis; fibrotic lung, relative abundance, vehicle group = 100%) | LOX expression in vivo (IHC LOX positive area, LOX activity) (bleomycin lung fibrosis; fibrotic lungs, bleomycin model) | cardiac fibrosis after infarction (trichrome Collagen Area %) [3] | liver fibrosis (collagen by Sirius red, α-SMA IF staining, % of total area) ([4]; TAA/alcohol liver fibrosis, mice, vs vehicle) | LOX expression in vivo (IHC LOX positive area, LOX activity) ([4]; fibrotic liver, TAA/alcohol model) | serine/glycine metabolism (serine and glycine levels in tissue extracts by HPLC-ms) ([4]; fibrotic liver, relative abundance, vehicle group = 100%)
O=S(=O)(c1ccc2c(c1)OCCO2)N1CCN(S(=O)(=O)c2c(F)cccc2F)CC1 [DASA-10] | reduces LOX and LOXL2 expression | reduces LOX and LOXL2 expression | decreases metabolic enzymes that are involved in serine/glycine metabolism |  |  |  |  |  |  |  | 
Cn1c2cc([S+](C)[O-])sc2c2cnn(Cc3cccc(N)c3)c(=O)c21 (centres unmarked) [TEPP-46] |  |  |  | reverse pancreatitis | reverses liver and lung fibrosis | decreases serine/glycine metabolism | reduces LOX expression in vivo | decreases cardiac fibrosis after infarction | reverses liver and lung fibrosis | reduces LOX expression in vivo | decreases serine/glycine metabolism

Reference: US20250387390A1, “METHODS FOR TREATING FIBROSIS USING PKM2 ACTIVATORS” (Proda Biotech L.L.C., priority 2020, published 2025)
